Test results reported in US20150176022A1, “HERBICIDE-RESISTANT SUNFLOWER PLANTS, POLYNUCLEOTIDES ENCODING HERBICIDE=RESISTANT ACETO HYDROXY ACID SYNTHASE LARGE SUBUNIT PROTEINS, AND METHODS OF USE” (priority 2013, published 2015).

How the values were obtained:
Format in all cases: in vivo, Helianthus annuus
[1] = tested on: Clearfield-Sunflower variety B; experiment: Greenhouse spray test, injury rating (Example 5); settings: Imazapyr 240 gm ai/ha, 14 DAT, scale 0=no injury to 9=dead plant
Source text: (§1) Sunflower lines S4897, Clearfield® sunflower varieties A, B, C and a conventional non-Clearfield variety were sprayed with three rates of imazamox (Raptor™), 100, 200 and 300 gm ai/ha plus 0.5% Sun It II and two rates of imazapyr (Arsenal™) 160 and 360 gm ai/ha plus 0.5% Sun It II when the plants were at the two to three leaf stage. Ratings were taken at 14 days after application (DAT) for injury. Injury was rated on a scale from 0 to 9 where 0=no injury to 9=dead plant. Twelve plants were sprayed per herbicide/rate treatment. Statistical analysis was conducted with STATGRAPHICS Plus 5.0 by using ANOVA and LSD procedures.
(§2) After plants were sprayed, it was realized that a height difference between S4897 and other sunflower varieties would have impacted the actual herbicide dose that was delivered. The spray boom height had been calibrated against S4897 and since the other varieties were taller and closer to the boom they would have received a greater dose of herbicide. Rates were recalibrated for the other varieties to determine the approximate dose they would have received. Assessments were made as presented in Table 2 since it was not possible to make a direct rate comparison due to the effect of the height. For example injury scores were compare for S4897 treated imazamox rate 100 gm ai/ha to the other varieties treated at 75 gm ai/ha. The treatment dose of 300 gm ai/ha for line S4897 was equivalent to the treatment of 200 gm ai/ha for the other varieties, which […].

Sunflower line S4897 = experiment: Greenhouse spray test, injury rating (Example 5); settings: Imazapyr 360 gm ai/ha, 14 DAT, scale 0=no injury to 9=dead plant
Source text: as §1, §2

[2] = tested on: sunflower TH10 (Restorer Line, A205V); experiment: Greenhouse whole-plant imazapir dose response (Example 8); settings: 14 DAT
Description: (§3) A greenhouse study was conducted to quantify and contrast the imazapir sensitivity of the mutants A122T and A205V in different genetic backgrounds at the whole plant level in sunflower. Seeds of the different sunflower lines that were used in this study were obtained under field conditions.
(§4) Seeds were sown in Petri dishes and, after germination, plantlets were transplanted to pots of 10 cm of diameter in a potting media consisting of equal parts of vermiculite, soil and sand. Plants were grown in a greenhouse under natural light conditions supplemented with 400 W sodium halide lamps to provide a 16 hrs daylength. Day/night temperatures were 25 and 20° C., respectively. At the V2 stage 10 plants of each genotype were randomly assigned to each treatment consisting of […] imazapir doses (0, 40, 80, 160, 240, 320, 400 and 480 g ai/ha), and a zero-time biomass determination. Experiment was arranged as a randomized block design with a full factorial (sunflower line×treatment) arrangement of treatments and 10 replications.
(§5) On the day of herbicide application ten plants of each genotype were cut at the cotyledonal node and dried at 60° C. for 48 hrs zero-time for dried weight determination. […] Height was determined as the distance between the cotyledonal node and the apex of each plant. For root biomass determination, each plant was taken from the pot and the potting media was washed out from the roots. Above ground biomass data from each line were converted to biomass accumulation after application by subtracting the appropriate average zero-time biomass from each sample. Dry biomass data were converted to percentages of the untreated control plants within each line to allow direct comparisons between groups.

[3] = tested on: A122T versus A205V sunflower genotypes; experiment: Greenhouse whole-plant imazapir dose response (Example 8), difference between mutants; settings: difference of group means, 14 DAT
Description: as §3, §4, §5

[4] = tested on: M2 plants of EMS-treated BTK47; experiment: Selection of imidazolinone-resistant M2 plants (Example 1); settings: approximately 590,000 M2 plants sprayed at V2-V4 stage; 80 g ai/ha; greenhouse
Description: BTK47, a Helianthus annuus L. breeding line, was chemically mutated as follows. Sixty thousand seeds of the BTK47 line were treated with a solution of ethyl methanesulfonate (EMS) for 15 hours. The treated seeds were then sown under field conditions on Dec. 16, 2002 at Nidera Experimental Station in Venado Tuerto, Santa Fe, Argentina. Approximately 30,000 M1 plants flowered and were covered with bags in order to self-pollinate each plant. Each plant was harvested and threshed by hand. On May 10, 2003 at Nidera Experimental Station in Formosa, 20 M2 seeds from each capitulum were sown under greenhouse conditions. Approximately 590,000 plants were sprayed at V2-V4 stage with imazapyr at a rate of 80 g ai/ha. […] M3 seeds from each of these eight plants were evaluated for their resistance to imazapyr. Out of these eight M3 families, one family (S4897) segregated for herbicide resistance at a ratio of 1 resistant (i.e., conferring tolerance to commercial rates of imidazolinone herbicides): 2 intermediate (i.e., partially resistant): 1 susceptible. Fully fertile resistant plants were self pollinated and harvested in order to propagate the line S4897.

CC(C)C1(C)N=C(c2ncccc2C(=O)O)NC1=O (stereo not drawn) [imazapir, imazapyr]
Injury [1]: 4.3 b
Injury (Sunflower line S4897; listed as Imazapyr): 0.8 a
Injury (Sunflower line S4897; listed as imazapyr): very little injury
Phytotoxicity Index ([2]; 0.5× (40 g ai/ha)): 0
biomass accumulation (dry biomass, % of untreated) ([2]; 0.5× (40 g ai/ha)): 99.2%
plant height (% of untreated) ([2]; 0.5× (40 g ai/ha)): 99.2%
root dry weight (% of untreated) ([2]; 0.5× (40 g ai/ha)): 90.3%
Phytotoxicity Index ([2]; 1× (80 g ai/ha)): 0
biomass accumulation (dry biomass, % of untreated) ([2]; 1× (80 g ai/ha)): 85.0%
plant height (% of untreated) ([2]; 1× (80 g ai/ha)): 98.1%
root dry weight (% of untreated) ([2]; 1× (80 g ai/ha)): 69.9%
Phytotoxicity Index ([2]; 2× (160 g ai/ha)): 3.1
biomass accumulation (dry biomass, % of untreated) ([2]; 2× (160 g ai/ha)): 58.1%
plant height (% of untreated) ([2]; 2× (160 g ai/ha)): 63.6%
root dry weight (% of untreated) ([2]; 2× (160 g ai/ha)): 41.3%
Phytotoxicity Index ([2]; 3× (240 g ai/ha)): 3.9
biomass accumulation (dry biomass, % of untreated) ([2]; 3× (240 g ai/ha)): 48.1%
plant height (% of untreated) ([2]; 3× (240 g ai/ha)): 51.9%
root dry weight (% of untreated) ([2]; 3× (240 g ai/ha)): 42.8%
Phytotoxicity Index ([2]; 4× (320 g ai/ha)): 5.9
biomass accumulation (dry biomass, % of untreated) ([2]; 4× (320 g ai/ha)): 28.8%
plant height (% of untreated) ([2]; 4× (320 g ai/ha)): 27.5%
root dry weight (% of untreated) ([2]; 4× (320 g ai/ha)): 22.3%
Phytotoxicity Index ([2]; 5× (400 g ai/ha)): 6.9
biomass accumulation (dry biomass, % of untreated) ([2]; 5× (400 g ai/ha)): 27.4%
plant height (% of untreated) ([2]; 5× (400 g ai/ha)): 28.0%
root dry weight (% of untreated) ([2]; 5× (400 g ai/ha)): 22.7%
Phytotoxicity Index ([2]; 6× (480 g ai/ha)): 6.7
biomass accumulation (dry biomass, % of untreated) ([2]; 6× (480 g ai/ha)): 24.9%
plant height (% of untreated) ([2]; 6× (480 g ai/ha)): 29.3%
root dry weight (% of untreated) ([2]; 6× (480 g ai/ha)): 16.4%
Phytotoxicity Index, Dif A205V-A122T ([3]; 0.5× (40 g ai/ha)): −0.29
biomass, Dif A122T-A205V ([3]; 0.5× (40 g ai/ha)): 4.3%
plant height, Dif A122T-A205V ([3]; 0.5× (40 g ai/ha)): 4.9%
root dry weight, Dif A122T-A205V ([3]; 0.5× (40 g ai/ha)): 12.7%
Phytotoxicity Index, Dif A205V-A122T ([3]; 1× (80 g ai/ha)): −0.29
biomass, Dif A122T-A205V ([3]; 1× (80 g ai/ha)): 14.5%
plant height, Dif A122T-A205V ([3]; 1× (80 g ai/ha)): 9.4%
root dry weight, Dif A122T-A205V ([3]; 1× (80 g ai/ha)): 26.7%
Phytotoxicity Index, Dif A205V-A122T ([3]; 2× (160 g ai/ha)): 1.87
biomass, Dif A122T-A205V ([3]; 2× (160 g ai/ha)): 33.2%
plant height, Dif A122T-A205V ([3]; 2× (160 g ai/ha)): 28.0%
root dry weight, Dif A122T-A205V ([3]; 2× (160 g ai/ha)): 43.6%
Phytotoxicity Index, Dif A205V-A122T ([3]; 3× (240 g ai/ha)): 4.81
biomass, Dif A122T-A205V ([3]; 3× (240 g ai/ha)): 45.3%
plant height, Dif A122T-A205V ([3]; 3× (240 g ai/ha)): 45.3%
root dry weight, Dif A122T-A205V ([3]; 3× (240 g ai/ha)): 50.2%
Phytotoxicity Index, Dif A205V-A122T ([3]; 4× (320 g ai/ha)): 6.92
biomass, Dif A122T-A205V ([3]; 4× (320 g ai/ha)): 52.4%
plant height, Dif A122T-A205V ([3]; 4× (320 g ai/ha)): 59.9%
root dry weight, Dif A122T-A205V ([3]; 4× (320 g ai/ha)): 50.3%
Phytotoxicity Index, Dif A205V-A122T ([3]; 5× (400 g ai/ha)): 7.38
biomass, Dif A122T-A205V ([3]; 5× (400 g ai/ha)): 46.9%
plant height, Dif A122T-A205V ([3]; 5× (400 g ai/ha)): 57.8%
root dry weight, Dif A122T-A205V ([3]; 5× (400 g ai/ha)): 47.9%
Phytotoxicity Index, Dif A205V-A122T ([3]; 6× (480 g ai/ha)): 7.03
biomass, Dif A122T-A205V ([3]; 6× (480 g ai/ha)): 44.6%
plant height, Dif A122T-A205V ([3]; 6× (480 g ai/ha)): 54.0%
root dry weight, Dif A122T-A205V ([3]; 6× (480 g ai/ha)): 37.3%
plants surviving the herbicide treatment [4]: Eight plants survived
